Consider four molecules from US20100160391A1, “Substituted Aminopyridines as Fluorescent Reporters for Amide Hydrolases” (priority 2006, published 2010).

Each structure is given as a SMILES string. Marks after values point to notes of the source that are not given here.

Data set [1] concerns the target T1, microsomal fatty acid amide hydrolase (FAAH) (Homo sapiens, UniProt O00519).
T1 construct: made in house; host or cells: Trichoplusia ni High Five cells infected with recombinant baculovirus Ac-hFAAH; microsomal fraction
T1 sequence (O00519 1-579): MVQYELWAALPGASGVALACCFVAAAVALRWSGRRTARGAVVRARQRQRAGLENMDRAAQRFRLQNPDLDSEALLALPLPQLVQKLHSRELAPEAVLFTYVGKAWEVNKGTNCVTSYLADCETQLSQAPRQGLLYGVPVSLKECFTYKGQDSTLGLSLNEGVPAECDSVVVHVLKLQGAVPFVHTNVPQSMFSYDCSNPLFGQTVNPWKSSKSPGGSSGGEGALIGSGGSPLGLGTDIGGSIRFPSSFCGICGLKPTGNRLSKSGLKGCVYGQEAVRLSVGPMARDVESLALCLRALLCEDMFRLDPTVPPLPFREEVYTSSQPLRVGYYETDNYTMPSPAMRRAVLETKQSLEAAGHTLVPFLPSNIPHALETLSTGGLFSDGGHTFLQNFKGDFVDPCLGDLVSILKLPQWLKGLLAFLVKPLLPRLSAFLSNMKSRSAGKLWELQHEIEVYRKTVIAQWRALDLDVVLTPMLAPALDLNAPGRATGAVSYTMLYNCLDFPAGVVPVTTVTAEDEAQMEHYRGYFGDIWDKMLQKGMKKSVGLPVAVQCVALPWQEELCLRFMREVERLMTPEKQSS
Briefly: Lowest detection limits of microsomal FAAH toward colorimetric and fluorescent substrates. It is filed as biochemical. The settings on record: for base line, Average: 0 min; for signal, Average: 10 min. Here is the method: (§1) Preparation of recombinant human FAAH. Transgenic expression of the human FAAH in a baculovirus system was performed by following the method described in Nishi et al., Arch. Biochem. Biophys., 445:115-123 (2006). The cDNA encoding human FAAH (GenBank Accession No. NM_001441) was amplified by PCR using a human liver cDNA library (Invitrogen; Carlsbad, Calif.) as a template. The primer pair was 5′-[…]-3′ and 5′-[…]-3′. BglII and EcoRI endonuclease sites (underlined) were incorporated just upstream of the start codon and downstream of the stop codon of the coding sequence of FAAH, respectively. The PCR products were cloned into a pCR2.1 vector (Invitrogen) and the nucleotide sequence was verified by DNA sequencing. The cDNA fragments were then excised and directionally ligated to the BglII and EcoRI sites of the baculovirus transfer vector pAcUW21 (Lopez-Ferber et al., Baculovirus transfer vectors, in “Baculovirus Expression Protocols,” Richardson (Ed.), pp 25-63, Humana Press, Totowa, N.J., 1995). Recombinant baculoviruses harboring the human FAAH gene, Ac-hFAAH, were generated by co-transfection of Spodoptera frugiperda-derived Sf21 cells with the recombinant transfer vector plasmid and Bsu36I-cleaved BacPAK6 viral DNA (Clontech Laboratories; Mountain View, Calif.) as described in O'Reilly et al., Baculovirus Expression Vectors: A Laboratory Manual, Oxford University Press, New York, 1992. Trichoplusia ni-derived High Five cells (1×10^6 cells/ml) were inoculated with a high titer of Ac-hFAAH. At 72 hours post-infection, the infected cells were harvested by centrifugation at 2,000×g for 20 min at 4° C. and suspended in 50 mM Tris-HCl (pH 8.0) containing 150 mM NaCl, 1 mM EDTA, 1 μM pepstatin, 100 μM leupeptin, and 0.1 mg/ml aprotinin. The cell suspension was then homogenized using a Polytron homogenizer and centrifuged at 10,000×g for 20 min at 4° C. The microsomal fraction was collected by ultracentrifugation of the supernatant at 100,000×g for 60 min at 4° C. The pellet was resuspended in 20 mM Tris-HCl (pH 8.0) containing 10% (w/v) glycerol and 1% (w/v) Triton-X 100 and stored at −80° C. until use.
(§2) Comparison of the lowest detection limits of protein concentration of FAAH toward colorimetric and fluorescent substrates. In general, all assays were performed in 96-well styrene flat-bottom microtiter plates with a Spectra Max M2 spectrophotometer at 37° C. for […]. The total volume of each well was 201 μl consisting of 0.1 M sodium phosphate buffer (pH 8.0) (190 μl) containing 1% glycerol and 0.1% Triton-X 100, stock or diluted protein solution (10 μl), and the substrate solution (1 μl) in ethanol (final concentration 200 μM for 10, 11, 13 or 14) or in DMSO (final concentration 25 μM for 12, 15, or 16; 50 μM for 17). The lowest detection limits of microsomal fatty acid amide hydrolase (FAAH) by substrates were determined by the fact that the signal at 10 min after kinetic measurements are equal to or over three times the noise or basal line at 0 min. Colorimetric substrate (16) assays were performed in clear 96-well microtititer plates using an absorbance wavelength at 382 nm. The fluorescent substrates containing 5-amino-2-methoxypyridine (e.g., 10, 13) were measured at an excitation wavelength (302 nm), emission wavelength (396 nm), and auto cutoff wavelength (325 nm). Similarly, the fluorescent substrates containing 5-amino-2-methoxy-6-methylpyridine (e.g., 11, 14, and 17) were measured at an excitation wavelength (304 nm), emission wavelength (392 nm), and an auto cutoff wavelength of 325 nm. In addition, an excitation wavelength (366 nm), emission wavelength (496 nm), and auto cutoff wavelength (495 nm) were used for the substrates (e.g., 12 and 15) containing 7-amino-4-trifluoromethyl coumarin.

The target of data set [2] is T2, fatty acid amide hydrolase (FAAH) (Homo sapiens, UniProt O00519).
T2 construct: made in house; host or cells: Trichoplusia ni High Five cells infected with recombinant baculovirus Ac-hFAAH; microsomal fraction
T2 sequence (O00519 1-579): T1 sequence (O00519 1-579)
Nature of the data set: Kinetic study of FAAH toward substrates. It is filed as biochemical. Here is the method: as §1
Kinetic study. The kinetic assays were also performed as described above for the sensitivity assay. Briefly, a total volume of 201 μl contained 0.1 M sodium phosphate buffer (pH 8.0) (190 μl) with 1% glycerol and 0.1% Triton-X 100, protein solution (10 μl), and substrate solution (1 μl). The protein content was 0.67 μg per well (201 μl). The concentration of substrate (13) in DMSO was 200, 100, 50, 25, 12.5, 6.25, 3.13, 1.56, or 0.78 μM. Similarly, the concentration of substrate (17) in DMSO was 100, 50, 25, 12.5, 6.25, 3.13, 1.56, 0.78, or 0.39 μM. Four replicates were applied for each concentration. Reported kinetic data (km and Vmax) were analyzed by the SigmaPlot Enzyme Kinetics software (2001) using the Michaelis-Menten equation for all concentrations.

For data set [3], the target named is T3, human FAAH, microsomes from FAAH cells (Homo sapiens, UniProt O00519).
T3 construct: made in house; host or cells: Trichoplusia ni High Five cells infected with recombinant baculovirus Ac-hFAAH; microsomal fraction
T3 sequence (O00519 1-579): T1 sequence (O00519 1-579)
Nature of the data set: Specific activity, microsomes from FAAH cells. Type of data set: biochemical. The protocol:
as §1, §2
Specific activity determination. The assays for specific activities were performed as described above for the sensitivity assay. […]

Data set [4] has as its system amidases, microsomes from High Five cells. Briefly: Specific activity, microsomes from High Five cells. The settings on record: pH 8.0, 37° C.; NM = not measurable at the same protein concentration as other substrates.
Procedure: Preparation of recombinant human FAAH. Transgenic expression of the human FAAH in a baculovirus system was performed by following the method described in Nishi et al., Arch. […] The cDNA encoding human FAAH (GenBank Accession No. NM—001441) was amplified by PCR using a human liver cDNA library (Invitrogen; Carlsbad, Calif.) as a template. The primer pair was 5′-[sequence]-3′ and 5′-[sequence]-3′. BglII and EcoRI endonuclease sites (underlined) were incorporated just upstream of the start codon and downstream of the stop codon of the coding sequence of FAAH, respectively. The PCR products were cloned into a pCR2.1 vector (Invitrogen) and the nucleotide sequence was verified by DNA sequencing. The cDNA fragments were then excised and directionally ligated to the BglII and EcoRI sites of the baculovirus transfer vector pAcUW21 (Lopez-Ferber et al., Baculovirus transfer vectors, in “Baculovirus Expression Protocols,” Richardson (Ed.), pp 25-63, Humana Press, Totowa, N.J., 1995). Recombinant baculoviruses harboring the human FAAH gene, Ac-hFAAH, were generated by co-transfection of Spodoptera frugiperda-derived Sf21 cells with the recombinant transfer vector plasmid and Bsu36I-cleaved BacPAK6 viral DNA (Clontech Laboratories; Mountain View, Calif.) as described in O'Reilly et al., Baculovirus Expression Vectors: A Laboratory Manual, Oxford University Press, New York, 1992. Trichoplusia ni-derived High Five cells (1×10^6 cells/ml) were inoculated with a high titer of Ac-hFAAH. At 72 hours post-infection, the infected cells were harvested by centrifugation at 2,000×g for 20 min at 4° C. and suspended in 50 mM Tris-HCl (pH 8.0) containing 150 mM NaCl, 1 mM EDTA, 1 μM pepstatin, 100 μM leupeptin, and 0.1 mg/ml aprotinin. The cell suspension was then homogenized using a Polytron homogenizer and centrifuged at 10,000×g for 20 min at 4° C. […]
Comparison of the lowest detection limits of protein concentration of FAAH toward colorimetric and fluorescent substrates. […] The lowest detection limits of microsomal fatty acid amide hydrolase (FAAH) by substrates were determined by the fact that the signal at 10 min after kinetic measurements are equal to or over three times the noise or basal line at 0 min. Colorimetric substrate (16) assays were performed in clear 96-well microtititer plates using an absorbance wavelength at 382 nm. The fluorescent substrates containing 5-amino-2-methoxypyridine (e.g., 10, 13) were measured at an excitation wavelength (302 nm), emission wavelength (396 nm), and auto cutoff wavelength (325 nm). Similarly, the fluorescent substrates containing 5-amino-2-methoxy-6-methylpyridine (e.g., 11, 14, and 17) were measured at an excitation wavelength (304 nm), emission wavelength (392 nm), and an auto cutoff wavelength of 325 nm. […]
[5] abbreviates: protein 0.11 (13), 0.67 (14), 100 (15), 0.5 (17) μg/well, 200 μM (13),(14), 25 μM (15), 50 μM (17).
Where [6] appears, read: FAAH sensitivity assay, Table 2.
[7] abbreviates: pH 8.0, 37° C., 0.67 μg protein per well, Michaelis-Menten.
Setting [8] is: absorbance 382 nm, protein 100 μg/well, 25 μM.

`CCCCCCCC(=O)Nc1ccc2c(C(F)(F)F)cc(=O)oc2c1` [Compound 15, N-(4-(trifluoromethyl)-2-oxo-2H-chromen-7-yl) octanamide] had a melting point of 136.6 to 137.1 °C. Besides, in data set [1] (setting [5]), the “base line, Average” value is reported as 132 RFU and the “signal, Average” value turned out to be 161 RFU. Further, in data set [1] (setting [6]), the “times less sensitive than substrate (13)” value was “at least 900 times” and the “times less sensitive than substrate (14)” value is recorded as at least 150 times.
Consider `CCCCC/C=C\C/C=C\C/C=C\C/C=C\CCCC(=O)Nc1ccc(OC)nc1` [Compound 17], for which, in data set [1] (setting [5]), the “base line, Average” value is 148 RFU and the “signal, Average” value is on record as 559* RFU. In addition, in data set [1] (pH 8), the “Protein, lowest detection limit of microsomal FAAH (signal at 10 min ≥ three times base line)” value was 0.5 μg/200 μ′. Further, the “lowest detection limit of protein” value in data set [1] (signal at 10 min equal to three times base line) came out at 2.5 μg protein/ml. The Selectivity ratio in data set [2] (Vmax/Km of substrate over that of oleamide (5.5 × 10^−2)) came to 54.5. Also, in data set [2] (setting [7]), the Km came out at 12.5 µM and the Vmax amounted to 36.7 nmol/min/mg. The “enhancement of activity, microsomes from FAAH-expressing cells compared with High Five cells” value in data set [3] worked out at 4180 times. In addition, the “Specific activity, Microsomes from FAAH cells” value in data set [3] (pH 8) is 23.5 ± 0.7 nmol/min/mg protein. In addition, in data set [4], the “Specific activity, Microsomes from High Five cells” value was found to be 5.62 ± 0.67 pmol/min/mg protein.
In the case of `COc1ccc(NC(C)=O)cn1` [Compound 10, N-(6-methoxypyridin-3-yl) acetamide], in data set [4], the “Specific activity, Microsomes from High Five cells” value is 56 ± 2 pmol/min/mg protein.
Turning to `CCCCCCCC(=O)Nc1ccc([N+](=O)[O-])cc1` [Compound 16, N-(4-nitrophenyl) octanamide], the melting point was 80.9 to 81.6 °C. Also, in data set [1] (setting [8]), the “base line, Average” value is reported as 0.16 OD and the “signal, Average” value was found to be 0.18 OD.
